Among the data in the supplement of paper PMC11368000 are POD vs vehicle values, retold here.

The subject of one assay is 1392 (donor line of iPSC-derived cardiomyocytes). The experiment in a line: POD (EC10) for decrease in total cell number (cytotoxicity) vs vehicle; higher = less potent (higher point of departure). As to conditions: exposure time: 90 min. As for the experimental part:
(§1)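 Human iPSC-derived cardiomyocytes from 16 donors were exposed for 90 min at 37 °C to each PFAS at 0.1, 1, 10 and 100 µM in 0.5% DMSO, 384-well plates. Kinetic Ca2+ flux (FLIPR) and Hoechst nuclei counts were normalised to vehicle wells and fitted with a hierarchical Bayesian Hill model to give donor-specific PODs: EC05 for beat-rate increase or decrease and for decay-to-rise ratio increase (QT proxy), EC95 for peak-frequency loss (asystole), EC10 for total cell number loss. 0.03 µM is the lower bound.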
In turn, `O=C(O)CCC(F)(F)C(F)(F)C(F)(F)C(F)(F)C(F)(F)C(F)(F)C(F)(F)F` [3-Perfluoroheptylpropanoic_acid] had a POD vs vehicle of over 100 µM.

`OCCC(F)(F)C(F)(F)C(F)(F)C(F)(F)C(F)(F)C(F)(F)F` [6:2 Fluorotelomer alcohol] yielded a POD vs vehicle of over 100 µM.

As for `O=S(=O)(O)CCC(F)(F)C(F)(F)C(F)(F)C(F)(F)C(F)(F)C(F)(F)F` [6:2 Fluorotelomer sulfonic acid], the POD vs vehicle was over 100 µM.

Molecule `OCCC(F)(F)C(F)(F)C(F)(F)C(F)(F)C(F)(F)C(F)(F)C(F)(F)C(F)(F)F` [8:2 Fluorotelomer alcohol] came in with a POD vs vehicle of over 100 µM.

With `O=S(=O)(O)CCC(F)(F)C(F)(F)C(F)(F)C(F)(F)C(F)(F)C(F)(F)C(F)(F)C(F)(F)F` [8:2 Fluorotelomer sulfonic acid], the POD vs vehicle is over 100 µM.

`O=C(O)C(F)(F)C(F)(F)C(F)(F)C(F)(F)C(F)(F)C(F)(F)C(F)(F)C(F)(F)Cl` [9-Chloro-perfluorononanoic_acid] displayed a POD vs vehicle of over 100 µM.

On to `O=P(O)(O)CCC(F)(F)C(F)(F)C(F)(F)C(F)(F)C(F)(F)C(F)(F)C(F)(F)C(F)(F)F` [((Perfluorooctyl)ethyl)phosphonic_acid], for which the POD vs vehicle was over 100 µM.

For `OCC(F)(F)C(F)(F)C(F)(F)C(F)(F)C(F)(F)C(F)F` [Dodecafluoroheptanol], the POD vs vehicle is over 100 µM.

Regarding `COC(=O)C(F)(F)C(F)(F)OC(F)(C(F)(F)F)C(F)(F)OC(F)=C(F)F` (stereo not given) [Methyl_perfluoro(3-(1-ethenyloxypropan-2-yloxy)propanoate)], the POD vs vehicle is over 100 µM.

`CN(CCO)S(=O)(=O)C(F)(F)C(F)(F)C(F)(F)C(F)(F)C(F)(F)C(F)(F)C(F)(F)C(F)(F)F` [N-Methyl-N-(2-hydroxyethyl)perfluorooctanesulfonamide] yielded a POD vs vehicle of over 100 µM.

In turn, `NC(=O)C(F)(F)C(F)(F)C(F)(F)C(F)(F)C(N)=O` [Octafluoroadipamide] showed a POD vs vehicle of over 100 µM.

For the molecule `O=C(O)C(F)(F)C(F)(F)C(F)(F)OC(F)(F)F` [Perfluoro(4-methoxybutanoic)_acid], the POD vs vehicle was over 100 µM.

On to `O=C(O)C(F)(F)C(F)(F)OC(F)(F)F` [Perfluoro-3-methoxypropanoic_acid], for which the POD vs vehicle was over 100 µM.

As to `O=C(O)C(F)(F)C(F)(F)C(F)(F)F` [Perfluorobutanoic_acid], the POD vs vehicle is over 100 µM.

Molecule `O=C(O)C(F)(F)C(F)(F)C(F)(F)C(F)(F)C(F)(F)C(F)(F)C(F)(F)C(F)(F)C(F)(F)F` [Perfluorodecanoic_acid] displayed a POD vs vehicle of over 100 µM.

With `NS(=O)(=O)C(F)(F)C(F)(F)C(F)(F)C(F)(F)C(F)(F)C(F)(F)F` [Perfluorohexanesulfonamide], the POD vs vehicle is over 100 µM.

Consider `O=S(=O)(O)C(F)(F)C(F)(F)C(F)(F)C(F)(F)C(F)(F)C(F)(F)F` [Perfluorohexanesulfonic_acid], for which the POD vs vehicle was over 100 µM.

For the molecule `O=C(O)C(F)(F)C(F)(F)C(F)(F)C(F)(F)C(F)(F)F` [Perfluorohexanoic_acid], the POD vs vehicle is over 100 µM.

For a further assay, the system named is 1434 (donor line of iPSC-derived cardiomyocytes). Described as above. As to conditions: exposure time: 90 min. As for the experimental part: as §1
For `O=C(O)CCC(F)(F)C(F)(F)C(F)(F)C(F)(F)C(F)(F)C(F)(F)C(F)(F)F` [3-Perfluoroheptylpropanoic_acid], the POD vs vehicle was over 100 µM.

Consider `OCCC(F)(F)C(F)(F)C(F)(F)C(F)(F)C(F)(F)C(F)(F)F` [6:2 Fluorotelomer alcohol], for which the POD vs vehicle was over 100 µM.

`O=S(=O)(O)CCC(F)(F)C(F)(F)C(F)(F)C(F)(F)C(F)(F)C(F)(F)F` [6:2 Fluorotelomer sulfonic acid]: the POD vs vehicle was over 100 µM.

In turn, `OCCC(F)(F)C(F)(F)C(F)(F)C(F)(F)C(F)(F)C(F)(F)C(F)(F)C(F)(F)F` [8:2 Fluorotelomer alcohol] came in with a POD vs vehicle of over 100 µM.

In the case of `O=S(=O)(O)CCC(F)(F)C(F)(F)C(F)(F)C(F)(F)C(F)(F)C(F)(F)C(F)(F)C(F)(F)F` [8:2 Fluorotelomer sulfonic acid], the POD vs vehicle is over 100 µM.

Molecule `O=C(O)C(F)(F)C(F)(F)C(F)(F)C(F)(F)C(F)(F)C(F)(F)C(F)(F)C(F)(F)Cl` [9-Chloro-perfluorononanoic_acid] displayed a POD vs vehicle of 36.7 µM.

Take `O=P(O)(O)CCC(F)(F)C(F)(F)C(F)(F)C(F)(F)C(F)(F)C(F)(F)C(F)(F)C(F)(F)F` [((Perfluorooctyl)ethyl)phosphonic_acid]: the POD vs vehicle was over 100 µM.

As to `OCC(F)(F)C(F)(F)C(F)(F)C(F)(F)C(F)(F)C(F)F` [Dodecafluoroheptanol], the POD vs vehicle was over 100 µM.

In the case of `COC(=O)C(F)(F)C(F)(F)OC(F)(C(F)(F)F)C(F)(F)OC(F)=C(F)F` (stereo not given) [Methyl_perfluoro(3-(1-ethenyloxypropan-2-yloxy)propanoate)], the POD vs vehicle was over 100 µM.

The molecule `CN(CCO)S(=O)(=O)C(F)(F)C(F)(F)C(F)(F)C(F)(F)C(F)(F)C(F)(F)C(F)(F)C(F)(F)F` [N-Methyl-N-(2-hydroxyethyl)perfluorooctanesulfonamide] displayed a POD vs vehicle of over 100 µM.

The molecule `NC(=O)C(F)(F)C(F)(F)C(F)(F)C(F)(F)C(N)=O` [Octafluoroadipamide] returned a POD vs vehicle of over 100 µM.

The molecule `O=C(O)C(F)(F)C(F)(F)C(F)(F)OC(F)(F)F` [Perfluoro(4-methoxybutanoic)_acid] registered a POD vs vehicle of over 100 µM.

Regarding `O=C(O)C(F)(F)C(F)(F)OC(F)(F)F` [Perfluoro-3-methoxypropanoic_acid], the POD vs vehicle was over 100 µM.

The molecule `O=C(O)C(F)(F)C(F)(F)C(F)(F)F` [Perfluorobutanoic_acid] gave a POD vs vehicle of over 100 µM.

Regarding `O=C(O)C(F)(F)C(F)(F)C(F)(F)C(F)(F)C(F)(F)C(F)(F)C(F)(F)C(F)(F)C(F)(F)F` [Perfluorodecanoic_acid], the POD vs vehicle was 75.8 µM.

Molecule `NS(=O)(=O)C(F)(F)C(F)(F)C(F)(F)C(F)(F)C(F)(F)C(F)(F)F` [Perfluorohexanesulfonamide] came in with a POD vs vehicle of 20.6 µM.

Molecule `O=S(=O)(O)C(F)(F)C(F)(F)C(F)(F)C(F)(F)C(F)(F)C(F)(F)F` [Perfluorohexanesulfonic_acid] returned a POD vs vehicle of over 100 µM.

`O=C(O)C(F)(F)C(F)(F)C(F)(F)C(F)(F)C(F)(F)F` [Perfluorohexanoic_acid] gave a POD vs vehicle of over 100 µM.

The next assay concerns 1516 (donor line of iPSC-derived cardiomyocytes). Described as above. Particulars: exposure time: 90 min. As for the experimental part: as §1
The molecule `O=C(O)CCC(F)(F)C(F)(F)C(F)(F)C(F)(F)C(F)(F)C(F)(F)C(F)(F)F` [3-Perfluoroheptylpropanoic_acid] displayed a POD vs vehicle of over 100 µM.

`OCCC(F)(F)C(F)(F)C(F)(F)C(F)(F)C(F)(F)C(F)(F)F` [6:2 Fluorotelomer alcohol]: the POD vs vehicle is over 100 µM.

The molecule `O=S(=O)(O)CCC(F)(F)C(F)(F)C(F)(F)C(F)(F)C(F)(F)C(F)(F)F` [6:2 Fluorotelomer sulfonic acid] showed a POD vs vehicle of over 100 µM.

On to `OCCC(F)(F)C(F)(F)C(F)(F)C(F)(F)C(F)(F)C(F)(F)C(F)(F)C(F)(F)F` [8:2 Fluorotelomer alcohol], for which the POD vs vehicle is over 100 µM.

Take `O=S(=O)(O)CCC(F)(F)C(F)(F)C(F)(F)C(F)(F)C(F)(F)C(F)(F)C(F)(F)C(F)(F)F` [8:2 Fluorotelomer sulfonic acid]: the POD vs vehicle is over 100 µM.

`O=C(O)C(F)(F)C(F)(F)C(F)(F)C(F)(F)C(F)(F)C(F)(F)C(F)(F)C(F)(F)Cl` [9-Chloro-perfluorononanoic_acid] gave a POD vs vehicle of 56.2 µM.

Turning to `O=P(O)(O)CCC(F)(F)C(F)(F)C(F)(F)C(F)(F)C(F)(F)C(F)(F)C(F)(F)C(F)(F)F` [((Perfluorooctyl)ethyl)phosphonic_acid], the POD vs vehicle is over 100 µM.

With `OCC(F)(F)C(F)(F)C(F)(F)C(F)(F)C(F)(F)C(F)F` [Dodecafluoroheptanol], the POD vs vehicle was over 100 µM.

Turning to `COC(=O)C(F)(F)C(F)(F)OC(F)(C(F)(F)F)C(F)(F)OC(F)=C(F)F` (stereo not given) [Methyl_perfluoro(3-(1-ethenyloxypropan-2-yloxy)propanoate)], the POD vs vehicle is over 100 µM.
